Test results reported in PubChem BioAssay (NCI).
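Dose response: 5 concentrations. Exposure: 48 h. Format: 96-well plates. Endpoint: linear interpolation; highest concentration if not reached. Here, GI50 denotes the concentration required for 50% inhibition of growth. TGI is the concentration that stops growth completely.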

Assays:
Test in all cases: DTP human tumour cell line panel, 48 h
786-0 renal = system: 786-0 renal
A498 renal = system: A498 renal
A549 NSCLC = system: A549 NSCLC
ACHN renal = system: ACHN renal
BT-549 breast = system: BT-549 breast
CAKI-1 renal = system: CAKI-1 renal
CCRF-CEM leukemia = system: CCRF-CEM leukemia
COLO 205 colon = system: COLO 205 colon
DU-145 prostate = system: DU-145 prostate
EKVX NSCLC = system: EKVX NSCLC
HCC-2998 colon = system: HCC-2998 colon
HCT-116 colon = system: HCT-116 colon
HCT-15 colon = system: HCT-15 colon
HL-60(TB) leukemia = system: HL-60(TB) leukemia
HOP-62 NSCLC = system: HOP-62 NSCLC
HOP-92 NSCLC = system: HOP-92 NSCLC
HS 578T breast = system: HS 578T breast
HT29 colon = system: HT29 colon
IGROV1 ovarian = system: IGROV1 ovarian
K-562 leukemia = system: K-562 leukemia
KM12 colon = system: KM12 colon
LOX IMVI melanoma = system: LOX IMVI melanoma
M14 melanoma = system: M14 melanoma
MCF7 breast = system: MCF7 breast
MDA-MB-231 breast = system: MDA-MB-231 breast
MDA-MB-435 = system: MDA-MB-435
MOLT-4 leukemia = system: MOLT-4 leukemia
NCI-H226 lung = system: NCI-H226 lung
NCI-H23 lung = system: NCI-H23 lung
NCI-H522 lung = system: NCI-H522 lung
NCI/ADR-RES ovarian = system: NCI/ADR-RES ovarian
OVCAR-3 ovarian = system: OVCAR-3 ovarian
OVCAR-4 ovarian = system: OVCAR-4 ovarian
OVCAR-5 ovarian = system: OVCAR-5 ovarian
OVCAR-8 ovarian = system: OVCAR-8 ovarian
PC-3 prostate = system: PC-3 prostate
RPMI-8226 leukemia = system: RPMI-8226 leukemia
RXF 393 renal = system: RXF 393 renal
SF-268 CNS = system: SF-268 CNS
SF-295 CNS = system: SF-295 CNS
SK-MEL-2 melanoma = system: SK-MEL-2 melanoma
SK-MEL-28 melanoma = system: SK-MEL-28 melanoma
SK-MEL-5 melanoma = system: SK-MEL-5 melanoma
SK-OV-3 ovarian = system: SK-OV-3 ovarian
SN12C renal = system: SN12C renal
SNB-19 CNS = system: SNB-19 CNS
SNB-75 CNS = system: SNB-75 CNS
SR leukemia = system: SR leukemia
SW-620 colon = system: SW-620 colon
T-47D breast = system: T-47D breast
TK-10 renal = system: TK-10 renal
U251 CNS = system: U251 CNS
UACC-257 melanoma = system: UACC-257 melanoma
UACC-62 melanoma = system: UACC-62 melanoma
UO-31 renal = system: UO-31 renal

## N#CC1=C(N)Oc2c(sc3c(Br)cccc23)C1c1ccc(Cl)cc1 (stereo not given)
786-0 renal
  GI50: 0.663 µM
  TGI: 2.71 µM
A498 renal
  GI50: 0.47 µM
  TGI: 11 µM
A549 NSCLC
  GI50: 1.16 µM
  TGI: 3.52 µM
ACHN renal
  GI50: 0.531 µM
  TGI: 2.46 µM
BT-549 breast
  GI50: 0.962 µM
  TGI: 12.7 µM
CAKI-1 renal
  GI50: 0.477 µM
  TGI: 16.3 µM
CCRF-CEM leukemia
  GI50: 0.368 µM
  TGI: 2.36 µM
COLO 205 colon
  GI50: 0.774 µM
  TGI: 2.72 µM
DU-145 prostate
  GI50: 0.533 µM
  TGI: 3.29 µM
EKVX NSCLC
  GI50: 2.23 µM
  TGI: 17.4 µM
HCC-2998 colon
  GI50: 1.57 µM
  TGI: 6.29 µM
HCT-116 colon
  GI50: 0.429 µM
  TGI: 1.79 µM
HCT-15 colon
  GI50: 0.403 µM
  TGI: 2.25 µM
HL-60(TB) leukemia
  GI50: 0.357 µM
  TGI: 1.88 µM
HOP-62 NSCLC
  GI50: 0.89 µM
  TGI: 6.42 µM
HOP-92 NSCLC
  GI50: 2 µM
  TGI: 7.29 µM
HS 578T breast
  GI50: 0.855 µM
  TGI: 18.1 µM
HT29 colon
  GI50: 0.711 µM
  TGI: 2.85 µM
IGROV1 ovarian
  GI50: 0.787 µM
  TGI: 4.35 µM
K-562 leukemia
  GI50: 0.322 µM
  TGI: 3.54 µM
KM12 colon
  GI50: 0.389 µM
  TGI: 6.2 µM
LOX IMVI melanoma
  GI50: 0.579 µM
  TGI: 8.45 µM
M14 melanoma
  GI50: 0.45 µM
  TGI: 2.65 µM
MCF7 breast
  GI50: 0.295 µM
  TGI: 5.07 µM
MDA-MB-231 breast
  GI50: 1.32 µM
  TGI: 4.69 µM
MDA-MB-435
  GI50: 0.277 µM
  TGI: 1.01 µM
MOLT-4 leukemia
  GI50: 0.625 µM
  TGI: 6.49 µM
NCI-H226 lung
  GI50: 1.49 µM
  TGI: 10.4 µM
NCI-H23 lung
  GI50: 0.821 µM
  TGI: 4.86 µM
NCI-H522 lung
  GI50: 0.367 µM
  TGI: 2.43 µM
NCI/ADR-RES ovarian
  GI50: 0.332 µM
  TGI: 1.35 µM
OVCAR-3 ovarian
  GI50: 0.272 µM
  TGI: 0.749 µM
OVCAR-4 ovarian
  GI50: 1.13 µM
  TGI: 16.1 µM
OVCAR-5 ovarian
  GI50: 1.91 µM
  TGI: 5.98 µM
OVCAR-8 ovarian
  GI50: 1.71 µM
  TGI: 8.29 µM
PC-3 prostate
  GI50: 0.56 µM
  TGI: 5.55 µM
RPMI-8226 leukemia
  GI50: 0.496 µM
  TGI: 9.25 µM
RXF 393 renal
  GI50: 0.553 µM
  TGI: 3.01 µM
SF-268 CNS
  GI50: 0.917 µM
  TGI: 7.62 µM
SF-295 CNS
  GI50: 0.276 µM
  TGI: 0.869 µM
SK-MEL-2 melanoma
  GI50: 0.672 µM
  TGI: 12.3 µM
SK-MEL-28 melanoma
  GI50: 1.15 µM
  TGI: 4.45 µM
SK-MEL-5 melanoma
  GI50: 0.559 µM
  TGI: 2.72 µM
SK-OV-3 ovarian
  GI50: 0.464 µM
  TGI: 11.6 µM
SN12C renal
  GI50: 2.88 µM
  TGI: 17.6 µM
SNB-19 CNS
  GI50: 0.822 µM
  TGI: 12.8 µM
SNB-75 CNS
  GI50: 0.478 µM
  TGI: 9.41 µM
SR leukemia
  GI50: 0.342 µM
  TGI: 2.69 µM
SW-620 colon
  GI50: 0.408 µM
  TGI: > 100 µM
T-47D breast
  GI50: 0.464 µM
  TGI: 11.6 µM
TK-10 renal
  GI50: 3.47 µM
  TGI: 12.8 µM
U251 CNS
  GI50: 0.563 µM
  TGI: 2.36 µM
UACC-257 melanoma
  GI50: 1.73 µM
  TGI: 22.7 µM
UACC-62 melanoma
  GI50: 0.435 µM
  TGI: 8.35 µM
UO-31 renal
  GI50: 0.614 µM
  TGI: 2.54 µM
